Drawing on DBAASP, this text covers MIC for eight molecules.

For orientation: MIC means the lowest concentration found to suppress growth. A higher MIC goes with weaker potency.

Holding throughout (assay): ≥ marks a high value that may be exact or a test limit, other limits are often not marked, values filed in µg/mL are converted to µM
Assay [1] concerns Candida albicans ATCC 36232.
In assay [2] the test system is Escherichia coli ATCC 2592.
Assay [3] relates to Micrococcus luteus ATCC 9341.
Assay [4] deals with Proteus vulgaris ATCC 6380.
The subject of assay [5] is Pseudomonas aeruginosa ATCC 9027.
Assay [6] concerns Staphylococcus aureus ATCC 6538.
The test system of assay [7] is Staphylococcus aureus.
Assay [8] relates to Escherichia coli ATCC 25922.
Assay [9] deals with Klebsiella pneumoniae ATCC 13883.
For assay [10], the system named is Klebsiella pneumoniae E406-17.
The test system of assay [11] is Pseudomonas aeruginosa E411-17.
Assay [12] concerns Staphylococcus aureus M838-17.
Assay [13] concerns Staphylococcus aureus USA 300 LAC.
The subject of assay [14] is Candida albicans NCPF 1467.
Assay [15] has as its system Escherichia coli NCTC 10418.
Assay [16] relates to Staphylococcus aureus NCTC 10788.
In assay [17] the test system is Escherichia coli BW25113.
Assay [18] concerns Escherichia coli J2210.
The test system of assay [19] is Escherichia coli JJ2489.
In assay [20] the test system is Escherichia coli JW0013.
In assay [21] the test system is Escherichia coli JW0368 ΔsbmA.
Assay [22] deals with Escherichia coli JW2778 ΔygdD.
Assay [23] relates to Escherichia coli MC1041.
Assay [24] deals with Salmonella enterica subsp. enterica serovar Enteritidis MH91989.
The test system of assay [25] is Salmonella typhimurium SL1344.
Assay [26] has as its system Pseudomonas aeruginosa PAO1.
In assay [27] the test system is Staphylococcus aureus JE2.
Assay [28] relates to Candida albicans CGMCC 2.2086.
Assay [29] relates to Candida parapsilosis CGMCC 2.3989.
Assay [30] deals with Candida tropicalis CGMCC 2.1975.
In assay [31] the test system is Lacticaseibacillus rhamnosus 7469.
In assay [32] the test system is Lactiplantibacillus plantarum 8014.
Assay [33] deals with Salmonella enterica subsp. enterica serovar Typhimurium ATCC 14028.
Assay [34] deals with Staphylococcus aureus ATCC 25923.
Assay [35] deals with Staphylococcus aureus ATCC 29213.
Assay [36] relates to Staphylococcus epidermidis ATCC 12228.

Converted amounts (≈) assume the structure as drawn. “And” between values parts separate entries of the source, which are not always exact repeats. Identical values can stand only once. Bounds are passed on as bounds.

For `CC[C@H](C)[C@H](NC(=O)[C@H](CCCCN)NC(=O)[C@@H]1CCCN1C(=O)[C@H](CC(C)C)NC(=O)[C@H](Cc1ccccc1)NC(=O)[C@H](CC(N)=O)NC(=O)[C@H](C)NC(=O)[C@H](C)NC(=O)[C@H](CC(C)C)NC(=O)CNC(=O)[C@H](C)NC(=O)[C@H](CC(C)C)NC(=O)[C@H](CC(C)C)NC(=O)[C@@H]1CCCN1C(=O)[C@H](CC(C)C)NC(=O)[C@@H](N)Cc1ccccc1)C(=O)N[C@@H](Cc1ccccc1)C(=O)N[C@@H](CS)C(=O)N[C@@H](CCCCN)C(=O)N[C@H](C(=O)N[C@H](C(=O)N[C@@H](CCCN=C(N)N)C(=O)N[C@@H](CCCCN)C(=O)N[C@@H](CS)C(N)=O)[C@@H](C)O)[C@@H](C)CC` [FLPLLAGLAANFLPKIFCKITRKC], the MIC in assay [1] is 1.16 µM (≈ 3.12 µg/mL); in assay [2], 2.33 µM (≈ 6.25 µg/mL); in [3], 1.16 µM (≈ 3.12 µg/mL); in assay [4], not below 37.3 µM; in assay [5] it was 1.16 µM (≈ 3.12 µg/mL); in assay [6] it was 2.33 µM (≈ 6.25 µg/mL). The MIC in assay [7] is 2.33 µM (≈ 6.25 µg/mL).

Consider `CC[C@H](C)[C@H](NC(=O)[C@H](CCCCN)NC(=O)[C@@H](N)CCCN=C(N)N)C(=O)N[C@@H](Cc1c[nH]c2ccccc12)C(=O)N[C@@H](Cc1c[nH]c2ccccc12)C(=O)N[C@@H](Cc1c[nH]c2ccccc12)C(=O)N[C@@H](Cc1c[nH]c2ccccc12)C(=O)N[C@@H](CC(C)C)C(N)=O` [RKIWWWWL], for which the MIC was 6.2 µM (≈ 7.89 µg/mL) in assay [8]; 4.38 µM (≈ 5.58 µg/mL) in assay [9]; 12.5 µM (≈ 15.9 µg/mL) in assay [10]; not below 50 µM in [11]; 8.8 µM (≈ 11.2 µg/mL) in [12]; 4.38 µM (≈ 5.58 µg/mL) in assay [13].

In the case of `CC[C@H](C)[C@H](NC(=O)[C@H](C)NC(=O)[C@@H]1CCCN1C(=O)[C@H](CC(C)C)NC(=O)[C@@H](N)Cc1ccccc1)C(=O)N[C@@H](C)C(=O)NCC(=O)N[C@@H](CC(C)C)C(=O)N[C@@H](C)C(=O)N[C@@H](C)C(=O)N[C@@H](CCCCN)C(=O)N[C@@H](Cc1ccccc1)C(=O)N[C@@H](CC(C)C)C(=O)N1CCC[C@H]1C(=O)N[C@@H](CCCCN)C(=O)N[C@H](C(=O)N[C@@H](Cc1ccccc1)C(=O)N[C@H]1CSSC[C@@H](C(=O)O)NC(=O)[C@H](CCCCN)NC(=O)[C@H](CCCCN)NC(=O)[C@H]([C@@H](C)O)NC(=O)[C@H]([C@@H](C)CC)NC(=O)[C@H](C)NC1=O)[C@@H](C)CC` [FLPAIAGLAAKFLPKIFCAITKKC], the MIC in assay [14] stood at 3.12 µM (≈ 8 µg/mL); in assay [15], 12.5 µM (≈ 32 µg/mL); in assay [16] it was 3.12 µM (≈ 8 µg/mL).

`CC[C@H](C)[C@H](NC(=O)[C@H](CCCN=C(N)N)NC(=O)[C@@H](N)CCCN=C(N)N)C(=O)N[C@@H](CCCCN)C(=O)N1CCC[C@H]1C(=O)N[C@@H](CCCN=C(N)N)C(=O)N1CCC[C@H]1C(=O)N1CCC[C@H]1C(=O)N[C@@H](CCCN=C(N)N)C(=O)N[C@@H](CC(C)C)C(=O)N1CCC[C@H]1C(=O)N[C@@H](CCCN=C(N)N)C(=O)N1CCC[C@H]1C(=O)N[C@@H](CCCN=C(N)N)C(=O)N1CCC[C@H]1C(=O)N[C@@H](CCCCN)C(=O)O` [RRIKPRPPRLPRPRPK]: the MIC amounted to 0.06 µM (≈ 0.121 µg/mL) in assay [17]; 0.12 µM (≈ 0.242 µg/mL) in assay [18]; 0.12 µM (≈ 0.242 µg/mL) in [19]; 0.06 µM (≈ 0.121 µg/mL) in assay [20]; 0.06 µM (≈ 0.121 µg/mL) in [21]; 0.12 µM (≈ 0.242 µg/mL) in [22]. Moreover, the MIC in assay [23] is 0.06 µM (≈ 0.121 µg/mL); in assay [24], 0.157 µM (≈ 0.317 µg/mL); in assay [25] it was 0.12 µM (≈ 0.242 µg/mL).

As to `CC(C)C[C@H](NC(=O)[C@H](CC(C)C)NC(=O)[C@H](CCCCN)NC(=O)[C@H](CC(C)C)NC(=O)CNC(=O)[C@H](CC(C)C)NC(=O)[C@H](CCCCN)NC(=O)[C@H](CC(C)C)NC(=O)[C@H](CC(C)C)NC(=O)[C@H](CC(C)C)NC(=O)[C@H](CCCCN)NC(=O)[C@H](CC(C)C)NC(=O)[C@@H](N)CCCCN)C(N)=O` [KLKLLLKLGLKLL], the MIC in assay [8] was more than 25 µM; in assay [9] it was 25 µM (≈ 37.3 µg/mL); in [26], more than 25 µM; in assay [27], 1.56 µM (≈ 2.33 µg/mL).

Take `CC[C@H](C)[C@H](N)C(=O)N[C@@H](Cc1cnc[nH]1)C(=O)N[C@@H](Cc1cnc[nH]1)C(=O)N[C@H](C(=O)N[C@@H](Cc1cnc[nH]1)C(=O)N[C@@H](Cc1cnc[nH]1)C(=O)N[C@H](C(=O)N[C@H](C(=O)N[C@@H](Cc1cnc[nH]1)C(=O)N[C@@H](Cc1cnc[nH]1)C(=O)N[C@H](C(=O)N[C@@H](Cc1cnc[nH]1)C(=O)N[C@@H](Cc1cnc[nH]1)C(=O)N[C@H](C(N)=O)[C@@H](C)CC)[C@@H](C)CC)[C@@H](C)CC)[C@@H](C)CC)[C@@H](C)CC` [IHHIHHIIHHIHHI]: the MIC in assay [28] was 8 µM (≈ 14.3 µg/mL); in assay [29] it was 4 µM (≈ 7.17 µg/mL); in [30] it was 1 µM (≈ 1.79 µg/mL); in [31], not below 64 µM; in assay [32], not below 64 µM; in [33], 32 µM and 64 µM. In addition, the MIC in [34], in [35] and in [36] was more than 64 µM each time.

Consider `CC[C@H](C)[C@H](NC(=O)[C@H](C)NC(=O)[C@H](Cc1cnc[nH]1)NC(=O)[C@@H]1CCCN1C(=O)[C@@H](NC(=O)[C@H](CC(C)C)NC(=O)[C@H](CO)NC(=O)[C@H](Cc1ccccc1)NC(=O)[C@H](CC(C)C)NC(=O)[C@@H](N)Cc1ccccc1)[C@@H](C)CC)C(=O)N[C@@H](CO)C(=O)NCC(=O)N[C@@H](CC(C)C)C(=O)N[C@H](C(=O)N[C@@H](CO)C(=O)N[C@@H](C)C(=O)N[C@@H](Cc1ccccc1)C(=O)N[C@H](C=O)CCCCN)[C@@H](C)CC` [FLFSLIPHAISGLISAFK], for which the values for the MIC in [14], in [15] and in [16] were 16 µM (≈ 31.1 µg/mL), not below 250 µM and 8 µM (≈ 15.6 µg/mL), respectively.

As to `CC[C@H](C)[C@H](NC(=O)[C@H](CCCN=C(N)N)NC(=O)[C@@H](N)CCCN=C(N)N)C(=O)N[C@@H](CCCCN)C(=O)N[C@@H](CCCCN)C(=O)N[C@@H](CCCN=C(N)N)C(=O)N1CCC[C@H]1C(=O)N1CCC[C@H]1C(=O)N[C@@H](CCCN=C(N)N)C(=O)N[C@@H](CC(C)C)C(=O)N1CCC[C@H]1C(=O)N[C@@H](CCCN=C(N)N)C(=O)N1CCC[C@H]1C(=O)N[C@@H](CCCN=C(N)N)C(=O)N1CCC[C@H]1C(=O)N[C@@H](CCCN=C(N)N)C(=O)O` [RRIKKRPPRLPRPRPR], the MIC in assay [17] came out at 0.078 µM (≈ 0.162 µg/mL); in [18], 0.157 µM (≈ 0.326 µg/mL); in assay [19], 0.12 µM (≈ 0.25 µg/mL); in assay [20], 0.06 µM (≈ 0.125 µg/mL); in assay [21], 0.06 µM (≈ 0.125 µg/mL); in [22], 0.12 µM (≈ 0.25 µg/mL). Also, the MIC in assay [23] is 0.06 µM (≈ 0.125 µg/mL); in [24] it was 0.12 µM (≈ 0.25 µg/mL); in [25] it was 0.12 µM (≈ 0.25 µg/mL).
